Source: patent US7265129B2, “Anti-infective biaryl compounds” (priority 2002, dated 2007)

Legend:
[1] = tested on: S. aureus ATCC 33591; experiment: MIC, NCCLS broth microdilution, S. aureus ATCC 33591; assay type: cell-based, Staphylococcus aureus
Source text: (§1) It vitro biological activity data were collected for a variety of microorganisms, including Bacillus cereus (ATCC 11778), Staphylococcus aureus (ATCC 33591; ATCC 27660, a methicillin resistant strain (MRSA); ATCC 13709, a methicillin sensitive strain (MSSA)), Enterococcus faecalis (ATCC 29212), and Streptococcus pneumoniae (ATCC 49619). Additionally, antifungal activity data were collected for Candida albicans (ATCC 38247).
(§2) Compounds according to this invention were screened for their in vitro activities against selected species of bacteria and fungi. The minimal inhibition concentration (MIC) of these compounds was determined using the National Committee for Clinical Laboratory Standards (NCCLS) broth microdilution assay in microtiter plates, as set forth in: (1) the guidelines of the National Committee for Clinical Laboratory Standards (NCCLS) Document M7-A4 (NCCLS, 1997); (2) the guidelines of the National Committee for Clinical Laboratory Standards (NCCLS) Document M11-A4 (NCCLS, 1997); and (3) the guidelines and reference method of the National Committee for Clinical Laboratory Standards (NCCLS) Document M27-T (NCCLS, 1995). For antifungal assays, the method recommended in Murray, P R., 1995 Manual of Clinical Microbiology (ASM Press, Washington, D.C.), was employed.

[2] = tested on: C. albicans ATCC 38247; experiment: MIC, antifungal assay, C. albicans; assay type: cell-based, Candida albicans
Source text: as §1, §2

[3] = tested on: S. aureus ATCC 13709; experiment: MIC, NCCLS broth microdilution, S. aureus MSSA; assay type: cell-based, Staphylococcus aureus; conditions: S. aureus ATCC 13709, methicillin sensitive strain (MSSA)
Source text: as §1, §2

[4] = tested on: E. faecalis ATCC 29212; experiment: MIC, NCCLS broth microdilution, E. faecalis; assay type: cell-based, Enterococcus faecalis
Source text: as §1, §2

[5] = tested on: B. cereus ATCC 11778; experiment: MIC, NCCLS broth microdilution, B. cereus; assay type: cell-based, Bacillus cereus
Source text: as §1, §2

[6] = tested on: S. pneumoniae ATCC 49619; experiment: MIC, NCCLS broth microdilution, S. pneumoniae; assay type: cell-based, Streptococcus pneumoniae
Source text: as §1, §2

[7] = tested on: S. aureus ATCC 27660; experiment: MIC, NCCLS broth microdilution, S. aureus MRSA; assay type: cell-based, Staphylococcus aureus; conditions: S. aureus ATCC 27660, methicillin resistant strain (MRSA)
Source text: as §1, §2

SMILES | Minimum Inhibitory Concentration (MIC), organism F [1] | Minimum Inhibitory Concentration (MIC), organism B [2] | Minimum Inhibitory Concentration (MIC), organism D [3] | Minimum Inhibitory Concentration (MIC), organism C [4] | Minimum Inhibitory Concentration (MIC), organism A [5] | Minimum Inhibitory Concentration (MIC), organism G [6] | Minimum Inhibitory Concentration (MIC), organism E [7]
Cn1cc(NC(=O)c2cc(NC(=O)c3sc4ccccc4c3Cl)cn2CCC[n+]2ccccc2)cc1-c1nc2ccccc2[nH]1 [Compound A-27] | ++ (4 < MIC < 12 μg/mL) | + (12 ≦ MIC ≦ 32 μg/mL) | ++ (4 < MIC < 12 μg/mL) | + (12 ≦ MIC ≦ 32 μg/mL) | + (12 ≦ MIC ≦ 32 μg/mL) | + (12 ≦ MIC ≦ 32 μg/mL) | ++ (4 < MIC < 12 μg/mL)
CN(C)CCCn1cc(NC(=O)c2sc3ccccc3c2Cl)cc1C(=O)Nc1cc(-c2nc3ncccc3[nH]2)n(C)c1 [Compound A-28] | +++ (MIC ≦ 4 μg/mL) | >32 µg/mL | +++ (MIC ≦ 4 μg/mL) | +++ (MIC ≦ 4 μg/mL) | +++ (MIC ≦ 4 μg/mL) | +++ (MIC ≦ 4 μg/mL) | +++ (MIC ≦ 4 μg/mL)
CN(C)CCCn1cc(NC(=O)c2sc3ccccc3c2Cl)cc1C(=O)Nc1cc(-c2nc3ccncc3[nH]2)n(C)c1 [Compound A-29] | +++ (MIC ≦ 4 μg/mL) | ++ (4 < MIC < 12 μg/mL) | +++ (MIC ≦ 4 μg/mL) | +++ (MIC ≦ 4 μg/mL) | +++ (MIC ≦ 4 μg/mL) | +++ (MIC ≦ 4 μg/mL) | +++ (MIC ≦ 4 μg/mL)
Cn1cc(NC(=O)c2cc(NC(=O)c3ccc(Cl)cc3F)cn2CCCN2CCCCC2)cc1-c1nc2ccccc2[nH]1 [Compound A-32] | +++ (MIC ≦ 4 μg/mL) | + (12 ≦ MIC ≦ 32 μg/mL) | +++ (MIC ≦ 4 μg/mL) | +++ (MIC ≦ 4 μg/mL) | +++ (MIC ≦ 4 μg/mL) | +++ (MIC ≦ 4 μg/mL) | +++ (MIC ≦ 4 μg/mL)
Cn1cc(NC(=O)c2cc(NC(=O)c3ccc(Cl)cc3F)cn2CCCN2CCSCC2)cc1-c1nc2ccccc2[nH]1 [Compound A-33] | +++ (MIC ≦ 4 μg/mL) | >32 µg/mL | +++ (MIC ≦ 4 μg/mL) | +++ (MIC ≦ 4 μg/mL) | +++ (MIC ≦ 4 μg/mL) | +++ (MIC ≦ 4 μg/mL) | +++ (MIC ≦ 4 μg/mL)
Cn1cc(NC(=O)c2cc(NC(=O)c3ccc(Cl)cc3F)cn2CCCN2CCC(O)CC2)cc1-c1nc2ccccc2[nH]1 [Compound A-34] | +++ (MIC ≦ 4 μg/mL) | + (12 ≦ MIC ≦ 32 μg/mL) | +++ (MIC ≦ 4 μg/mL) | +++ (MIC ≦ 4 μg/mL) | +++ (MIC ≦ 4 μg/mL) | +++ (MIC ≦ 4 μg/mL) | +++ (MIC ≦ 4 μg/mL)
Cn1cc(NC(=O)c2cc(NC(=O)c3ccc(Cl)cc3F)cn2CCCN2CCC(F)(F)CC2)cc1-c1nc2ccccc2[nH]1 [Compound A-35] | +++ (MIC ≦ 4 μg/mL) | >32 µg/mL | +++ (MIC ≦ 4 μg/mL) | +++ (MIC ≦ 4 μg/mL) | +++ (MIC ≦ 4 μg/mL) | +++ (MIC ≦ 4 μg/mL) | +++ (MIC ≦ 4 μg/mL)
Cn1cc(NC(=O)c2cc(NC(=O)c3ccc(Cl)cc3F)cn2CCCN(CCO)CCO)cc1-c1nc2ccccc2[nH]1 [Compound A-36] | +++ (MIC ≦ 4 μg/mL) | + (12 ≦ MIC ≦ 32 μg/mL) | ++ (4 < MIC < 12 μg/mL) | +++ (MIC ≦ 4 μg/mL) | ++ (4 < MIC < 12 μg/mL) | +++ (MIC ≦ 4 μg/mL) | +++ (MIC ≦ 4 μg/mL)
Cn1cc(NC(=O)c2cc(NC(=O)c3ccc(Cl)cc3F)cn2CCCN2CCOCC2)cc1-c1nc2ccccc2[nH]1 [Compound A-37] | +++ (MIC ≦ 4 μg/mL) | >32 µg/mL | +++ (MIC ≦ 4 μg/mL) | +++ (MIC ≦ 4 μg/mL) | +++ (MIC ≦ 4 μg/mL) | +++ (MIC ≦ 4 μg/mL) | +++ (MIC ≦ 4 μg/mL)
CC1CCN(CCCn2cc(NC(=O)c3ccc(Cl)cc3F)cc2C(=O)Nc2cc(-c3nc4ccccc4[nH]3)n(C)c2)CC1 [Compound A-38] | +++ (MIC ≦ 4 μg/mL) | + (12 ≦ MIC ≦ 32 μg/mL) | +++ (MIC ≦ 4 μg/mL) | +++ (MIC ≦ 4 μg/mL) | +++ (MIC ≦ 4 μg/mL) | +++ (MIC ≦ 4 μg/mL) | +++ (MIC ≦ 4 μg/mL)
CN(C)CCCn1cc(NC(=O)c2ccc(Cl)cc2F)cc1C(=O)Nc1cc(-c2nc3cccnc3[nH]2)n(C)c1 [Compound A-39] | +++ (MIC ≦ 4 μg/mL) | + (12 ≦ MIC ≦ 32 μg/mL) | +++ (MIC ≦ 4 μg/mL) | +++ (MIC ≦ 4 μg/mL) | +++ (MIC ≦ 4 μg/mL) | +++ (MIC ≦ 4 μg/mL) | +++ (MIC ≦ 4 μg/mL)
Cn1cc(NC(=O)c2cc(NC(=O)c3ccc(Cl)cc3F)cn2CCCN2CCOCC2)cc1-c1nc2cccnc2[nH]1 [Compound A-40] | +++ (MIC ≦ 4 μg/mL) | >32 µg/mL | +++ (MIC ≦ 4 μg/mL) | +++ (MIC ≦ 4 μg/mL) | +++ (MIC ≦ 4 μg/mL) | +++ (MIC ≦ 4 μg/mL) | +++ (MIC ≦ 4 μg/mL)
CC1CCN(CCCn2cc(NC(=O)c3ccc(Cl)cc3F)cc2C(=O)Nc2cc(-c3nc4cccnc4[nH]3)n(C)c2)CC1 [Compound A-41] | +++ (MIC ≦ 4 μg/mL) | >32 µg/mL | +++ (MIC ≦ 4 μg/mL) | +++ (MIC ≦ 4 μg/mL) | +++ (MIC ≦ 4 μg/mL) | +++ (MIC ≦ 4 μg/mL) | +++ (MIC ≦ 4 μg/mL)
